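Protocol summary: plate cells (96-well), add compound at 5 concentrations, incubate 48 h, interpolate endpoints linearly. GI50: concentration for 50% inhibition of growth. TGI marks complete inhibition of growth.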
What was measured:
Test in all cases: inhibition of tumour cell growth, NCI panel, 48 h
KM12 colon = system: KM12 colon
RXF 393 renal = system: RXF 393 renal
HCT-116 colon = system: HCT-116 colon
HCC-2998 colon = system: HCC-2998 colon
OVCAR-3 ovarian = system: OVCAR-3 ovarian
K-562 leukemia = system: K-562 leukemia
MDA-MB-231 breast = system: MDA-MB-231 breast
UO-31 renal = system: UO-31 renal
COLO 205 colon = system: COLO 205 colon
HL-60(TB) leukemia = system: HL-60(TB) leukemia
RPMI-8226 leukemia = system: RPMI-8226 leukemia
TK-10 renal = system: TK-10 renal
HOP-92 NSCLC = system: HOP-92 NSCLC
NCI/ADR-RES ovarian = system: NCI/ADR-RES ovarian
SF-539 CNS = system: SF-539 CNS
A498 renal = system: A498 renal
SF-295 CNS = system: SF-295 CNS
CCRF-CEM leukemia = system: CCRF-CEM leukemia
HT29 colon = system: HT29 colon
ACHN renal = system: ACHN renal
MALME-3M melanoma = system: MALME-3M melanoma
SW-620 colon = system: SW-620 colon
PC-3 prostate = system: PC-3 prostate
NCI-H23 lung = system: NCI-H23 lung
HCT-15 colon = system: HCT-15 colon
OVCAR-5 ovarian = system: OVCAR-5 ovarian
MCF7 breast = system: MCF7 breast
NCI-H226 lung = system: NCI-H226 lung
DU-145 prostate = system: DU-145 prostate
UACC-257 melanoma = system: UACC-257 melanoma
BT-549 breast = system: BT-549 breast
T-47D breast = system: T-47D breast
SK-MEL-5 melanoma = system: SK-MEL-5 melanoma
MOLT-4 leukemia = system: MOLT-4 leukemia
OVCAR-8 ovarian = system: OVCAR-8 ovarian
HOP-62 NSCLC = system: HOP-62 NSCLC
SK-OV-3 ovarian = system: SK-OV-3 ovarian
UACC-62 melanoma = system: UACC-62 melanoma
786-0 renal = system: 786-0 renal
A549 NSCLC = system: A549 NSCLC
SK-MEL-28 melanoma = system: SK-MEL-28 melanoma
IGROV1 ovarian = system: IGROV1 ovarian
NCI-H460 lung = system: NCI-H460 lung
SNB-19 CNS = system: SNB-19 CNS
SF-268 CNS = system: SF-268 CNS
U251 CNS = system: U251 CNS
OVCAR-4 ovarian = system: OVCAR-4 ovarian
EKVX NSCLC = system: EKVX NSCLC
SN12C renal = system: SN12C renal
MDA-MB-435 = system: MDA-MB-435
M14 melanoma = system: M14 melanoma
SR leukemia = system: SR leukemia
HS 578T breast = system: HS 578T breast
NCI-H522 lung = system: NCI-H522 lung
CAKI-1 renal = system: CAKI-1 renal
SK-MEL-2 melanoma = system: SK-MEL-2 melanoma
LOX IMVI melanoma = system: LOX IMVI melanoma
SNB-75 CNS = system: SNB-75 CNS

Molecule `COC1OC(C)C(NC(=O)OCC(Cl)(Cl)Cl)C2OC(C)(C)OC12` (centres undefined) has a TGI (KM12 colon) greater than 100 µM, a TGI (RXF 393 renal) greater than 100 µM and a TGI (HCT-116 colon) greater than 100 µM. For the same molecule, the TGI (HCC-2998 colon) was greater than 100 µM, the TGI (OVCAR-3 ovarian) was greater than 100 µM and the TGI (K-562 leukemia) was greater than 100 µM. For the same molecule, the TGI (MDA-MB-231 breast) was greater than 100 µM, the TGI (UO-31 renal) was greater than 100 µM and the TGI (COLO 205 colon) was greater than 100 µM. The TGI (HL-60(TB) leukemia) was greater than 100 µM, the TGI (RPMI-8226 leukemia) was greater than 100 µM and the TGI (TK-10 renal) was greater than 100 µM. The TGI (HOP-92 NSCLC) was greater than 100 µM, the TGI (NCI/ADR-RES ovarian) was greater than 100 µM and the TGI (SF-539 CNS) was greater than 100 µM. It also gave a TGI (A498 renal) greater than 100 µM, a TGI (SF-295 CNS) greater than 100 µM and a TGI (CCRF-CEM leukemia) greater than 100 µM. The TGI (HT29 colon) was greater than 100 µM, the TGI (ACHN renal) was greater than 100 µM and the TGI (MALME-3M melanoma) was greater than 100 µM. For the same molecule, the TGI (SW-620 colon) was greater than 100 µM, the TGI (PC-3 prostate) was greater than 100 µM and the TGI (NCI-H23 lung) was greater than 100 µM. For the same molecule, the TGI (HCT-15 colon) was greater than 100 µM, the TGI (OVCAR-5 ovarian) was greater than 100 µM and the TGI (MCF7 breast) was greater than 100 µM. It also gave a TGI (NCI-H226 lung) greater than 100 µM, a TGI (DU-145 prostate) greater than 100 µM and a TGI (UACC-257 melanoma) greater than 100 µM. It also gave a TGI (BT-549 breast) greater than 100 µM, a TGI (T-47D breast) greater than 100 µM and a TGI (SK-MEL-5 melanoma) greater than 100 µM. The TGI (MOLT-4 leukemia) was greater than 100 µM, the TGI (OVCAR-8 ovarian) was greater than 100 µM and the TGI (HOP-62 NSCLC) was greater than 100 µM. It also gave a TGI (SK-OV-3 ovarian) greater than 100 µM, a TGI (UACC-62 melanoma) greater than 100 µM and a TGI (786-0 renal) greater than 100 µM. The TGI (A549 NSCLC) was greater than 100 µM, the TGI (SK-MEL-28 melanoma) was greater than 100 µM and the TGI (IGROV1 ovarian) was greater than 100 µM. For the same molecule, the TGI (NCI-H460 lung) was greater than 100 µM, the TGI (SNB-19 CNS) was greater than 100 µM and the TGI (SF-268 CNS) was greater than 100 µM. For the same molecule, the TGI (U251 CNS) was greater than 100 µM, the TGI (OVCAR-4 ovarian) was greater than 100 µM and the TGI (EKVX NSCLC) was greater than 100 µM. It also gave a TGI (SN12C renal) greater than 100 µM, a TGI (MDA-MB-435) greater than 100 µM and a TGI (M14 melanoma) greater than 100 µM. It also gave a TGI (SR leukemia) greater than 100 µM, a TGI (HS 578T breast) greater than 100 µM and a TGI (NCI-H522 lung) greater than 100 µM. It also gave a TGI (CAKI-1 renal) greater than 100 µM.

`O=C1NC(=N[C@@H](CO)c2ccccc2)S/C1=C\c1ccc2ncccc2c1` gave a GI50 (KM12 colon) of 10.8 µM, a TGI (KM12 colon) greater than 25 µM and a GI50 (RXF 393 renal) of 5.84 µM. The TGI (RXF 393 renal) was greater than 25 µM, the GI50 (HCT-116 colon) was 5.22 µM and the TGI (HCT-116 colon) was greater than 25 µM. It also gave a GI50 (HCC-2998 colon) of 11.2 µM, a TGI (HCC-2998 colon) greater than 25 µM and a GI50 (OVCAR-3 ovarian) of 14.8 µM. The TGI (OVCAR-3 ovarian) was greater than 25 µM, the GI50 (K-562 leukemia) was 9.04 µM and the TGI (K-562 leukemia) was greater than 25 µM. It also gave a GI50 (MDA-MB-231 breast) greater than 23.1 µM, a TGI (MDA-MB-231 breast) greater than 25 µM and a GI50 (UO-31 renal) of 4.53 µM. It also gave a TGI (UO-31 renal) greater than 21.2 µM, a GI50 (COLO 205 colon) of 5.5 µM and a TGI (COLO 205 colon) of 15.9 µM. For the same molecule, the GI50 (HL-60(TB) leukemia) was 6.07 µM, the TGI (HL-60(TB) leukemia) was 19.4 µM and the GI50 (SK-MEL-2 melanoma) was 4.73 µM. It also gave a TGI (SK-MEL-2 melanoma) of 12.9 µM, a GI50 (RPMI-8226 leukemia) of 8.16 µM and a TGI (RPMI-8226 leukemia) greater than 25 µM. The GI50 (TK-10 renal) was 4.92 µM, the TGI (TK-10 renal) was greater than 25 µM and the GI50 (HOP-92 NSCLC) was 11.1 µM. For the same molecule, the TGI (HOP-92 NSCLC) was greater than 25 µM, the GI50 (NCI/ADR-RES ovarian) was greater than 25 µM and the TGI (NCI/ADR-RES ovarian) was greater than 25 µM. The GI50 (SF-539 CNS) was 5.86 µM, the TGI (SF-539 CNS) was 22 µM and the GI50 (LOX IMVI melanoma) was 6.15 µM. It also gave a TGI (LOX IMVI melanoma) greater than 18.3 µM, a GI50 (A498 renal) of 4.29 µM and a TGI (A498 renal) greater than 21.9 µM. The GI50 (SF-295 CNS) was 14.4 µM, the TGI (SF-295 CNS) was greater than 25 µM and the GI50 (CCRF-CEM leukemia) was 5.86 µM. For the same molecule, the TGI (CCRF-CEM leukemia) was 21.2 µM, the GI50 (HT29 colon) was 6.63 µM and the TGI (HT29 colon) was greater than 25 µM. The GI50 (ACHN renal) was 3.97 µM, the TGI (ACHN renal) was greater than 25 µM and the GI50 (MALME-3M melanoma) was 13.4 µM. For the same molecule, the TGI (MALME-3M melanoma) was greater than 25 µM, the GI50 (SW-620 colon) was 7.25 µM and the TGI (SW-620 colon) was greater than 25 µM. The GI50 (PC-3 prostate) was greater than 25 µM, the TGI (PC-3 prostate) was greater than 25 µM and the GI50 (NCI-H23 lung) was 8.92 µM. It also gave a TGI (NCI-H23 lung) greater than 25 µM, a GI50 (HCT-15 colon) of 6.19 µM and a TGI (HCT-15 colon) greater than 25 µM. It also gave a GI50 (OVCAR-5 ovarian) greater than 25 µM, a TGI (OVCAR-5 ovarian) greater than 25 µM and a GI50 (MCF7 breast) of 8.38 µM. For the same molecule, the TGI (MCF7 breast) was greater than 25 µM, the GI50 (NCI-H226 lung) was 11.7 µM and the TGI (NCI-H226 lung) was greater than 25 µM. It also gave a GI50 (DU-145 prostate) of 13.8 µM, a TGI (DU-145 prostate) greater than 25 µM and a GI50 (UACC-257 melanoma) of 13.9 µM. For the same molecule, the TGI (UACC-257 melanoma) was greater than 25 µM, the GI50 (BT-549 breast) was 4.07 µM and the TGI (BT-549 breast) was greater than 18.5 µM. It also gave a GI50 (T-47D breast) of 15.5 µM, a TGI (T-47D breast) greater than 25 µM and a GI50 (SK-MEL-5 melanoma) of 9.14 µM. The TGI (SK-MEL-5 melanoma) was greater than 25 µM, the GI50 (MOLT-4 leukemia) was 9.19 µM and the TGI (MOLT-4 leukemia) was greater than 25 µM. The GI50 (OVCAR-8 ovarian) was 8.93 µM, the TGI (OVCAR-8 ovarian) was greater than 25 µM and the GI50 (HOP-62 NSCLC) was 12.7 µM. For the same molecule, the TGI (HOP-62 NSCLC) was greater than 25 µM, the GI50 (SK-OV-3 ovarian) was 8.1 µM and the TGI (SK-OV-3 ovarian) was greater than 25 µM. The GI50 (UACC-62 melanoma) was 10.4 µM, the TGI (UACC-62 melanoma) was greater than 25 µM and the GI50 (786-0 renal) was greater than 21.9 µM. For the same molecule, the TGI (786-0 renal) was greater than 25 µM, the GI50 (SNB-75 CNS) was 3.64 µM and the TGI (SNB-75 CNS) was greater than 25 µM. For the same molecule, the GI50 (A549 NSCLC) was 9.83 µM, the TGI (A549 NSCLC) was greater than 25 µM and the GI50 (SK-MEL-28 melanoma) was greater than 20.2 µM. The TGI (SK-MEL-28 melanoma) was greater than 25 µM, the GI50 (IGROV1 ovarian) was 4.71 µM and the TGI (IGROV1 ovarian) was greater than 18.3 µM. The GI50 (NCI-H460 lung) was 7.75 µM, the TGI (NCI-H460 lung) was greater than 25 µM and the GI50 (SNB-19 CNS) was 24.2 µM. It also gave a TGI (SNB-19 CNS) greater than 25 µM, a GI50 (SF-268 CNS) of 14.1 µM and a TGI (SF-268 CNS) greater than 25 µM. For the same molecule, the GI50 (U251 CNS) was 11 µM, the TGI (U251 CNS) was greater than 25 µM and the GI50 (OVCAR-4 ovarian) was 12.5 µM. It also gave a TGI (OVCAR-4 ovarian) greater than 25 µM, a GI50 (SN12C renal) of 8.1 µM and a TGI (SN12C renal) greater than 25 µM. For the same molecule, the GI50 (MDA-MB-435) was 3.65 µM, the TGI (MDA-MB-435) was 15.3 µM and the GI50 (M14 melanoma) was 6.16 µM. For the same molecule, the TGI (M14 melanoma) was greater than 25 µM, the GI50 (SR leukemia) was 1.53 µM and the TGI (SR leukemia) was 12.7 µM. The GI50 (HS 578T breast) was 4.84 µM, the TGI (HS 578T breast) was greater than 25 µM and the GI50 (NCI-H522 lung) was 5.93 µM. The TGI (NCI-H522 lung) was greater than 20 µM, the GI50 (CAKI-1 renal) was 3.06 µM and the TGI (CAKI-1 renal) was greater than 25 µM.
